Counter-ions that a name gives are not always drawn.
The compounds below were run against T1, PDGFR-β (Homo sapiens, UniProt P09619) (assay: Biochemical PDGFR assay (ELISA, PDGFR-β expressing NIH 3T3 cell lysate)). Conditions: read-out: bio PDGF IC50.
T1 construct: host or cells: NIH 3T3
Outline: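 PDGFR-β from NIH 3T3 cell lysate captured on anti-PDGFR (28D4C10)-coated plates; compound preincubated 30 min, then 20 μM ATP kinase reaction 30 min at room temperature, stopped with EDTA. Phosphotyrosine detected by anti-phosphotyrosine antibody, peroxidase conjugate and ABTS/H2O2, read at 410 nm.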

T1 sequence (P09619 33-1106): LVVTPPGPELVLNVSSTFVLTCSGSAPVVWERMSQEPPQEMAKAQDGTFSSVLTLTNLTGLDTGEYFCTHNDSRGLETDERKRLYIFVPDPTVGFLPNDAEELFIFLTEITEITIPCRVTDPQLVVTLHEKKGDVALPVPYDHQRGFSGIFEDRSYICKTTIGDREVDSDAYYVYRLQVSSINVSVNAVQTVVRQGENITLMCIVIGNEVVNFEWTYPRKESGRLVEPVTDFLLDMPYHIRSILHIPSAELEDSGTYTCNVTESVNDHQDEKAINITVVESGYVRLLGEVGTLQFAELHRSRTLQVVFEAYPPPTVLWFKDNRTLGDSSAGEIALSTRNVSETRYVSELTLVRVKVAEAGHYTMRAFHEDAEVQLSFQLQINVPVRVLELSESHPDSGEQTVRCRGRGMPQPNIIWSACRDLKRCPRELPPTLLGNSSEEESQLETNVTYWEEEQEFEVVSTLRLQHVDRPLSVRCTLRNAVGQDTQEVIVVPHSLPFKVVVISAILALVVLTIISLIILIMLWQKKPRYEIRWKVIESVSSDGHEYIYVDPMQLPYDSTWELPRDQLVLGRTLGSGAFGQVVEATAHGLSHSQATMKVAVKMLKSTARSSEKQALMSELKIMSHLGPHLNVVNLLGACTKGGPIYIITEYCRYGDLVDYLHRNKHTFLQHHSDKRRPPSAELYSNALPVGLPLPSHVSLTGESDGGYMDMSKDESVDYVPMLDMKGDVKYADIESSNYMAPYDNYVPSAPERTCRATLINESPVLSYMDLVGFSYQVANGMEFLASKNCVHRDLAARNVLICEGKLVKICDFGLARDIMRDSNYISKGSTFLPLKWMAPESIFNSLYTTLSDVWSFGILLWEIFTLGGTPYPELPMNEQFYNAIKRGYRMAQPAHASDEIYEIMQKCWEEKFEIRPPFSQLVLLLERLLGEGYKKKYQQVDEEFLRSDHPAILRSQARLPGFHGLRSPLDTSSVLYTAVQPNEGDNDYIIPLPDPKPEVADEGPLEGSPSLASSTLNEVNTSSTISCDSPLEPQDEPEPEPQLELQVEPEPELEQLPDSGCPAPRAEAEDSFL

Point of comparison: O=C1Nc2ccc(F)cc2/C1=C\c1ccc2c(c1)CCO2 [Example 42, 3-(2,3-Dihydrobenzofuran-5-ylmethylene)-5-fluoro-1,3-dihydroindol-2-one], IC50 43.1 µM. Against it:
- COc1ccc(C=C2C(=O)Nc3cc(NC(C)=O)ccc32)cc1-c1cccc(NC(C)=O)c1 (mixture of isomers) [Example 63, N-[3-(3′-Acetylamino-6-methoxybiphenyl-3-ylmethylene)-2-oxo-2,3-dihydro-1H-indol-6-yl]-acetamide] — higher, > 100 µM
- CC1(C)CCc2cc(C=C3C(=O)Nc4ccc(Br)cc43)ccc2O1 (racemic) [Example 34, 5-Bromo-3-(2,2-dimethylchroman-6-ylmethylene)-1,3-dihydroindol-2-one] — within 1.5-fold, 56.7 µM
- CNS(=O)(=O)c1ccc2c(c1)C(=Cc1[nH]c3ccccc3c1C)C(=O)N2 (racemic) [Example 154, 3-(3-Methyl-1H-indol-2-ylmethylene)-2-oxo-2,3-dihydro-1H-indole-5-sulfonic acid methylamide] — higher, > 100 µM
- COc1ccc(/C=C2/C(=O)Nc3ccc(F)cc32)cc1C1CCCC1 [Example 11, 3-(3-Cyclopentyl-4-methoxybenzylidene)-5-fluoro-1,3-dihydroindol-2-one] — higher, > 100 µM
- COc1ccc(/C=C2/C(=O)Nc3ccc(Br)cc32)cc1-c1ccccc1 [Example 13, 5-Bromo-3-(6-methoxybiphenyl-3-ylmethylene)-1,3-dihydroindol-2-one] — higher, > 100 µM
- CC1(C)CCc2cc(/C=C3/C(=O)Nc4ccc(Cl)cc43)ccc2O1 [Example 15, 5-Chloro-3-(2,2-dimethyl-chroman-6-ylmethylene)-1,3-dihydroindol-2-one] — 1.6-fold lower, 26.5 µM
- CC(=O)Nc1ccc2c(c1)NC(=O)/C2=C/c1ccc(OCCN2CCOCC2)c(C2CCCCC2)c1 [Example 16, N-{3-[3-Cyclohexyl-4-(2-morpholin-4-ylethoxy)-benzylidene]-2-oxo-2,3-dihydro-1H-indol-6-yl}-acetamide] — higher, > 100 µM
- COc1ccc(/C=C2/C(=O)Nc3ccc(F)cc32)cc1-c1ccccc1 [Example 37, 5-Fluoro-3-(6-methoxybiphenyl-3-ylmethylene)-1,3-dihydroindol-2-one] — higher, > 100 µM
- Cc1cccc2c1/C(=C/c1ccc3c(c1)CCC(C)(C)O3)C(=O)N2 [Example 41, 3-(2,2-Dimethylchroman-6-ylmethylene)-4-methyl-1,3-dihydroindol-2-one] — higher, > 100 µM
- COc1ccc(/C=C2/C(=O)Nc3ccc(F)cc32)cc1C1CCCCC1 [Example 43, 3-(3-Cyclohexyl-4-methoxybenzylidene)-5-fluoro-1,3-dihydroindol-2-one] — 3.9-fold lower, 11 µM
- COc1ccc(/C=C2/C(=O)Nc3ccc(F)cc32)cc1C(C)C [Example 44, 5-Fluoro-3-(3-isopropyl-4-methoxybenzylidene)-1,3-dihydroindol-2-one] — higher, > 100 µM
- CC(=O)Nc1ccc2c(c1)NC(=O)/C2=C/c1ccc(OCCN2CCOCC2)c(-c2ccsc2)c1 [Example 50, N-{3-[4-(2-Morpholin-4-ylethoxy)-3-thiophen-3-ylbenzylidene]-2-oxo-2,3-dihydro-1H-indol-6-yl}-acetamide] — higher, > 100 µM
- CC(=O)Nc1ccc2c(c1)NC(=O)/C2=C/c1ccc(OCCN2CCOCC2)c(C(C)(C)C)c1 [Example 55, N-{3-[3-tert-Butyl-4-(2-morpholin-4-ylethoxy)-benzylidene]-2-oxo-2,3-dihydro-1H-indol-6-yl}-acetamide] — higher, > 100 µM
- COc1ccc2c(c1)NC(=O)/C2=C/c1ccc(OC)c(-c2ccsc2)c1 [Example 64, 6-Methoxy-3-(4-methoxy-3-thiophen-3-ylbenzylidene)-1,3-dihydroindol-2-one] — higher, > 100 µM
- Cc1cc(CCC(=O)O)c(/C=C2\C(=O)Nc3cc(-c4ccc(F)cc4)ccc32)[nH]1 [Example 107, 3-{2-[6-(4-Fluorophenyl)-2-oxo-1,2-dihydroindol-3-ylidenemethyl]-5-methyl-1H-pyrrol-3-yl}propionic acid] — lower, < 0.78 µM
- CCOC(=O)c1c(C)[nH]c(/C=C2\C(=O)Nc3cc(-c4ccc(F)cc4)ccc32)c1CCC(=O)O [Example 108, 4-(2-Carboxyethyl)-5-[6-(4-fluorophenyl)-2-oxo-1,2-dihydro-indol-3-ylidenemethyl]-2-methyl-1H-pyrrole-3-carboxylic acid ethyl ester] — 15-fold lower, 2.97 µM
- COc1ccccc1-c1ccc2c(c1)NC(=O)/C2=C\c1[nH]c(C)cc1CCC(=O)O [Example 109, 3-{2-[6-(2-Methoxyphenyl)-2-oxo-1,2-dihydroindol-3-ylidenemethyl]-5-methyl-1H-pyrrol-3-yl}-propionic acid] — 15-fold lower, 2.79 µM
- CCOC(=O)c1c(C)[nH]c(/C=C2\C(=O)Nc3cc(-c4ccccc4OC)ccc32)c1CCC(=O)O [Example 110, 4-(2-Carboxyethyl)-5-[6-(2-methoxyphenyl)-2-oxo-1,2-dihydro-indol-3-ylidenemethyl]-2-methyl-1H-pyrrol-3-yl-carboxylic acid ethyl ester] — 14-fold lower, 3.15 µM
- Cc1cc(CCC(=O)O)c(/C=C2\C(=O)Nc3ccc(Cl)cc32)[nH]1 [Example 111, 3-[2-(5-Chloro-2-oxo-1,2-dihydroindol-3-ylidenemethyl)-5-methyl-1H-pyrrol-3-yl]propionic acid] — 4300-fold lower, 0.01 µM
- Cc1c(/C=C2\C(=O)Nc3ccc(C(=O)O)cc32)[nH]c2ccccc12 [Example 156, 3-(3-Methyl-1H-indol-2-ylmethylene)-2-oxo-2,3-dihydro-1H-indole-5-carboxylic acid (piperidine salt)] — 5.2-fold lower, 8.32 µM
- O=C1Nc2ccc(Br)cc2/C1=C/c1cc2ccccc2[nH]1 [Example 165, 5-Bromo-3-(1H-indol-2-ylmethylene)-1,3-dihydro-indol-2-one] — within 1.5-fold, 48.7 µM
- Cc1cccc2c1/C(=C/c1cc3ccccc3[nH]1)C(=O)N2 [Example 166, 3-(1H-indol-2-ylmethylene)-4-methyl-1,3-dihydro-indol-2-one] — higher, > 100 µM

What follows are compounds tested on A431 cells (assay: A431 growth assay (2% FBS)). Conditions: Homo sapiens, A-431, read-out: A431 growth (2% FBS) IC50.
Format: cell-based

Point of comparison: COc1ccc(/C=C2/C(=O)Nc3ccc(Br)cc32)cc1-c1ccccc1 [Example 13, 5-Bromo-3-(6-methoxybiphenyl-3-ylmethylene)-1,3-dihydroindol-2-one], IC50 9 µM. Against it:
- COc1ccc(C=C2C(=O)Nc3cc(NC(C)=O)ccc32)cc1-c1cccc(NC(C)=O)c1 (mixture of isomers) [Example 63, N-[3-(3′-Acetylamino-6-methoxybiphenyl-3-ylmethylene)-2-oxo-2,3-dihydro-1H-indol-6-yl]-acetamide] — within 1.5-fold, 11 µM
- CC1(C)CCc2cc(C=C3C(=O)Nc4ccc(Br)cc43)ccc2O1 (racemic) [Example 34, 5-Bromo-3-(2,2-dimethylchroman-6-ylmethylene)-1,3-dihydroindol-2-one] — 2-fold lower, 4.4 µM
- COc1c(C(C)C)cc(/C=C2/C(=O)Nc3cc(NC(C)=O)ccc32)cc1C(C)C [Example 3, N-[3-(3,5-Diisopropyl-4-methoxybenzylidene)-2-oxo-2,3-dihydro-1H-indol-6-yl]-acetamide] — 4.1-fold lower, 2.2 µM
- COc1c(C(C)C)cc(/C=C2/C(=O)Nc3cc(O)ccc32)cc1C(C)C [Example 4, 3-(3,5-Diisopropyl-4-methoxybenzylidene)-6-hydroxy-1,3-dihydroindol-2-one] — 1.8-fold lower, 5.1 µM
- COc1c(C(C)C)cc(/C=C2/C(=O)Nc3ccc(C(C)=O)cc32)cc1C(C)C [Example 5, 5-Acetyl-3-(3,5-diisopropyl-4-methoxybenzylidene)-1,3dihydroindol-2-one] — 2.1-fold lower, 4.3 µM
- COC(=O)c1ccc2c(c1)/C(=C\c1cc(C(C)C)c(OC)c(C(C)C)c1)C(=O)N2 [Example 6, 3-(3,5-Diisopropyl-4-methoxybenzylidene)-2-oxo-2,3-dihydro-1H-indole-5-carboxylic acid methyl ester] — 3.1-fold lower, 2.9 µM
- COc1ccc(/C=C2/C(=O)Nc3ccccc32)cc1C(C)C [Example 7, 3-(3-Isopropyl-4-methoxybenzylidene)-1,3-dihydroindol-2-one] — 7.5-fold lower, 1.2 µM
- COc1cc(C)c(C=C2C(=O)Nc3ccccc32)cc1C(C)C [Example 8, 3-(5-Isopropyl-4-methoxy-2-methylbenzylidene)-1,3-dihydroindol-2-one] — 9.5-fold lower, 0.95 µM
- COc1cc(C)c(C=C2C(=O)Nc3ccc(Cl)cc32)cc1C(C)C [Example 9, 5-Chloro-3-(5-isopropyl-4-methoxy-2-methylbenzylidene)-1,3-dihydroindol-2-one] — 1.9-fold higher, 17.3 µM
- COc1ccc(/C=C2/C(=O)Nc3ccccc32)cc1C1CCCC1 [Example 10, 3-(3-Cyclopentyl-4-methoxybenzylidene)-1,3-dihydroindol-2-one] — within 1.5-fold, 8.5 µM
- COc1ccc(/C=C2/C(=O)Nc3ccc(F)cc32)cc1C1CCCC1 [Example 11, 3-(3-Cyclopentyl-4-methoxybenzylidene)-5-fluoro-1,3-dihydroindol-2-one] — within 1.5-fold, 12.5 µM
- COc1ccc(/C=C2/C(=O)Nc3ccccc32)cc1C1CCCCC1 [Example 12, 3-(3-Cyclohexyl-4-methoxybenzylidene)-1,3-dihydroindol-2-one] — within 1.5-fold, 7.9 µM
- CC1(C)CCc2cc(/C=C3/C(=O)Nc4ccc(Cl)cc43)ccc2O1 [Example 15, 5-Chloro-3-(2,2-dimethyl-chroman-6-ylmethylene)-1,3-dihydroindol-2-one] — 1.9-fold lower, 4.8 µM
- CC(=O)Nc1ccc2c(c1)NC(=O)/C2=C/c1ccc(OCCN2CCOCC2)c(C2CCCCC2)c1 [Example 16, N-{3-[3-Cyclohexyl-4-(2-morpholin-4-ylethoxy)-benzylidene]-2-oxo-2,3-dihydro-1H-indol-6-yl}-acetamide] — 2.2-fold lower, 4.1 µM
- COc1ccc2c(c1)/C(=C\c1cc(C(C)C)c(OC)c(C(C)C)c1)C(=O)N2 [Example 17, 3-(3,5-Diisopropyl-4-methoxybenzylidene)-5-methoxy-1,3-dihydroindol-2-one] — 2.1-fold lower, 4.3 µM
- COc1c(C(C)C)cc(/C=C2/C(=O)Nc3ccc(C)cc32)cc1C(C)C [Example 19, 3-(3,5-Diisopropyl-4-methoxybenzylidene)-5-methyl-1,3-dihydroindol-2-one] — 2.1-fold lower, 4.3 µM
- COc1c(C(C)C)cc(/C=C2/C(=O)Nc3ccc(N)cc32)cc1C(C)C [Example 20, 5-Amino-3-(3,5-diisopropyl-4-methoxy-benzylidene)-1,3-dihydroindol-2-one] — 3.3-fold higher, 29.5 µM
- COc1c(C)cc(/C=C2/C(=O)Nc3ccc(Cl)cc32)cc1C [Example 21, 5-Chloro-3-(4-methoxy-3,5-dimethylbenzylidene)-1,3-dihydroindol-2-one] — 1.7-fold higher, 15.3 µM
- CC1(C)CCc2cc(/C=C3/C(=O)Nc4ccc(F)cc43)ccc2O1 [Example 23, 3-(2,2-Dimethylchroman-6-ylmethylene)-5-fluoro-1,3-dihydroindol-2-one] — 1.6-fold higher, 14.5 µM
- COc1ccc(/C=C2/C(=O)Nc3ccc(CCN4CCOCC4)cc32)cc1-c1ccsc1 [Example 26, 3-(4-Methoxy-3-thiophen-3-ylbenzylidene)-5-(2-morpholin-4-yl-ethyl)-1,3-dihydroindol-2-one] — 3-fold lower, 3 µM
- COc1cc(C)c(/C=C2/C(=O)Nc3ncccc32)cc1C(C)C [Example 45, 3-(5-Isopropyl-4-methoxy-2-methylbenzylidene)-1,3-dihydro-pyrrolo[2,3-b]pyridin-2-one] — 2.8-fold lower, 3.2 µM
- COc1ccc(/C=C2/C(=O)Nc3ncccc32)cc1C1CCCC1 [Example 47, 3-(3-Cyclopentyl-4-methoxybenzylidene)-1,3-dihydropyrrolo[2,3-b]pyridin-2-one] — 4.5-fold higher, 40.4 µM

Source: patent US6855730B2, “3-methylidenyl-2-indolinone modulators of protein kinase” (Sugen, Inc., priority 1998, dated 2005)
